For data set [1] the following is noted: 101.33 kPa, Liquid; for mass density: 298.1 K; for viscosity: 298.15 K.
The nature of data set [2]: refractive index (Na D-line) (dimensionless). The settings on record: 298.1 K, 101.33 kPa, Liquid.
The mark [3] stands for this setting: Capillary tube (Ostwald / Ubbelohde) method.

Numbers after ± are expanded uncertainties.

By mass density is commonly meant mass per unit of volume. Usually viscosity stands for the resistance of a fluid to flow. As usually defined, the refractive index is a measure of how strongly the sample bends light. As for `c1ccsc1` [thiophene], in data set [1] (Vibrating tube method), the mass density stood at 1058.59 ± 0.14 kg/m3. The viscosity in data set [1] (setting [3]) is given as 0.612 ± 0.007 mPa·s. The refractive index in data set [2] (Standard Abbe refractometry) came out at 1.5253 ± 0.00041.

Turning to `CC(C)CC(C)(C)C` [2,2,4-trimethylpentane], the mass density in data set [1] (Vibrating tube method) stood at 687.84 ± 0.23 kg/m3. Also, in data set [2] (Standard Abbe refractometry), the refractive index amounted to 1.38921 ± 0.00041.

As to `Cc1ccccc1` [toluene], in data set [1] (Vibrating tube method), the mass density stood at 862.2 ± 0.16 kg/m3. In data set [1] (setting [3]), the viscosity worked out at 0.577 ± 0.007 mPa·s. For the same compound, in data set [2] (Standard Abbe refractometry), the refractive index is recorded as 1.49393 ± 0.00041.

In the case of `CCCCCCCCn1cc[n+](C)c1.O=S(=O)([N-]S(=O)(=O)C(F)(F)F)C(F)(F)F`, in data set [1], the mass density was 1319.78 ± 4.3 kg/m3 and the viscosity is 90.37 ± 4.8 mPa·s. For the same compound, the refractive index in data set [2] is on record as 1.4327 ± 0.00089.

The record behind these values is the NIST ThermoML archive (doi:10.1021/je800071q).
